In US20230085307A1, “PYRIDAZINONE COMPOUND AND HERBICIDE” (NISSAN CHEMICAL CORPORATION, priority 2019, published 2023):

What was measured:
[1] = test system: barnyard grass; test: Test Example 5: herbicidal effect by foliage application, plastic box (Table 20, symbol H); format: in vivo, barnyard grass (Echinochloa crus-galli)
In short: (§1)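 Plants sown in sterilized diluvial soil and grown 14 days in a greenhouse at 25° C to 30° C, then sprayed on the foliage with the compound's emulsion diluted in water to a predetermined herbicide amount. Injury to weeds and crops scored three weeks after application on a visual rating scale.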

[2] = test system: velvetleaf; test: Test Example 4: herbicidal effect by soil treatment (Table 19, symbol M); format: in vivo, velvetleaf (Abutilon theophrasti); settings: amount of applied herbicide 320 g/ha
Source text: (§2) [Test Example 4] Herbicidal Effect Test by Soil Treatment
(§3) Sterilized diluvial soil was placed in a plastic box having a length of 21 cm, a width of 13 cm, and a depth of 7 cm. The seeds of each of southern crabgrass, green foxtail, barnyard grass, wild oat, blackgrass, Italian ryegrass, windgrass, velvetleaf, redroot pigweed, lambsquarters, chickweed, false cleavers, persian speedwell, corn, soybean, rice, wheat, beet, and rapeseed were sowed in a spot-like manner and covered with the soil having a thickness of about 1.5 cm. Subsequently, the emulsion agent of the compound of the present invention prepared according to Formulation Example 2 was diluted with water so as to achieve a predetermined herbicide amount, and the diluted emulsion agent was uniformly applied to the surface of the soil with a small-sized spray. The plastic box was placed in a greenhouse at 25° C. to 30° C. for growth of the plants. Three weeks after the herbicide application, the effect of the herbicide on each plant was evaluated according to the criteria of Test Example 1.

[3] = test system: barnyard grass; test: Test Example 4: herbicidal effect by soil treatment (Table 19, symbol H); format: in vivo, barnyard grass (Echinochloa crus-galli); settings: amount of applied herbicide 320 g/ha
Source text: as §2, §3

[4] = test system: velvetleaf; test: Test Example 5: herbicidal effect by foliage application, plastic box (Table 20, symbol M); format: in vivo, velvetleaf (Abutilon theophrasti)
In short: as §1

[5] = test system: green foxtail; test: Test Example 4: herbicidal effect by soil treatment (Table 19, symbol G); format: in vivo, green foxtail (Setaria viridis); settings: amount of applied herbicide 320 g/ha
In short: (§4)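 Seeds were sown in sterilized diluvial soil and covered with about 1.5 cm of soil. An emulsion formulation diluted with water to a predetermined herbicide amount was sprayed evenly onto the soil surface. Plants grew in a greenhouse at 25° C. to 30° C., and the effect was scored three weeks after application using criteria from an earlier test.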

[6] = test system: lambsquarters; test: Test Example 5: herbicidal effect by foliage application, plastic box (Table 20, symbol O); format: in vivo, lambsquarters (Chenopodium album)
In short: as §1

[7] = test system: barnyard grass; test: Test Example 3: herbicidal effect by foliage application, Wagner pot (Table 18, symbol H); format: in vivo, barnyard grass (Echinochloa crus-galli); settings: for herbicidal effect on barnyard grass (H): 320 g/ha
In short: (§5)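 Plants were sown in alluvial soil held under 0.1–0.5 cm standing water and grown 14 days in a greenhouse at 25–30 °C. An emulsifiable formulation, water-diluted to the set dose, was then sprayed onto the foliage, and effects were scored three weeks later using previously defined criteria.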

[8] = test system: redroot pigweed; test: Test Example 4: herbicidal effect by soil treatment (Table 19, symbol N); format: in vivo, redroot pigweed (Amaranthus retroflexus); settings: amount of applied herbicide 320 g/ha
In short: as §4

[9] = test system: redroot pigweed; test: Test Example 5: herbicidal effect by foliage application, plastic box (Table 20, symbol N); format: in vivo, redroot pigweed (Amaranthus retroflexus)
In short: as §1

[10] = test system: southern crabgrass; test: Test Example 4: herbicidal effect by soil treatment (Table 19, symbol F); format: in vivo, southern crabgrass (Digitaria ciliaris); settings: amount of applied herbicide 320 g/ha
Source text: as §2, §3

[11] = test system: rice flat sedge; test: Test Example 3: herbicidal effect by foliage application, Wagner pot (Table 18, symbol E); format: in vivo, rice flat sedge (Cyperus iria); settings: for herbicidal effect on rice flat sedge (E): 320 g/ha
In short: as §5

[12] = test system: green foxtail; test: Test Example 5: herbicidal effect by foliage application, plastic box (Table 20, symbol G); format: in vivo, green foxtail (Setaria viridis)
In short: as §1

[13] = test system: southern crabgrass; test: Test Example 5: herbicidal effect by foliage application, plastic box (Table 20, symbol F); format: in vivo, southern crabgrass (Digitaria ciliaris)
In short: as §1

[14] = test system: lambsquarters; test: Test Example 4: herbicidal effect by soil treatment (Table 19, symbol O); format: in vivo, lambsquarters (Chenopodium album); settings: amount of applied herbicide 320 g/ha
Source text: as §2, §3

[15] = test system: Chinese sprangletop; test: Test Example 3: herbicidal effect by foliage application, Wagner pot (Table 18, symbol D); format: in vivo, chinese sprangletop (Leptochloa chinensis); settings: for herbicidal effect on Chinese sprangletop (D): 320 g/ha
In short: as §5

[16] = test system: chickweed; test: Test Example 5: herbicidal effect by foliage application, plastic box (Table 20, symbol P); format: in vivo, common chickweed (Stellaria media); settings: foliage application after 14-day growth, evaluated three weeks after application
Source text: [Test Example 5] Herbicidal Effect Test by Foliage Application
as §3, with “Thereafter, the plants were grown in a greenhouse at 25° C. to 30° C. After 14-day growth of the plants,” for “Subsequently,”, “a foliage part” for “the surface of the soil”, “spray.” for “spray. The plastic box was placed in a greenhouse at 25° C. to 30° C. for growth of the plants.”

[17] = test system: wild oat; test: Test Example 5: herbicidal effect by foliage application, plastic box (Table 20, symbol I); format: in vivo, wild oat (Avena fatua); settings: foliage application after 14-day growth, evaluated three weeks after application
In short: as §1

[18] = test system: Italian ryegrass; test: Test Example 5: herbicidal effect by foliage application, plastic box (Table 20, symbol K); format: in vivo, Italian ryegrass (Lolium multiflorum); settings: foliage application after 14-day growth, evaluated three weeks after application
In short: as §1

[19] = test system: windgrass; test: Test Example 5: herbicidal effect by foliage application, plastic box (Table 20, symbol L); format: in vivo, windgrass (Apera spica-venti); settings: foliage application after 14-day growth, evaluated three weeks after application
In short: as §1

[20] = test system: persian speedwell; test: Test Example 5: herbicidal effect by foliage application, plastic box (Table 20, symbol R); format: in vivo, Persian speedwell (Veronica persica); settings: 320 g/ha, foliage application after 14-day growth, evaluated three weeks after application
In short: as §1

[21] = test system: blackgrass; test: Test Example 5: herbicidal effect by foliage application, plastic box (Table 20, symbol J); format: in vivo, blackgrass (Alopecurus myosuroides); settings: amount of applied herbicide 320 g/ha; foliage application after 14-day growth; evaluated three weeks after application
In short: as §1

[22] = foliage application, 320 g/ha, three weeks after application
[23] = amount of applied herbicide 320 g/ha
[24] = 320 g/ha, foliage application after 14-day growth, evaluated three weeks after application
[25] = amount of applied herbicide 320 g/ha, foliage application after 14-day growth, evaluated three weeks after application

## Cc1nn(C)c(=O)c(-c2c(-c3ccsc3)sc3ccc(F)cc23)c1O [2-463]
[1]; [22]
  H: barnyard grass, herbicidal effect grade: 3 (Herbicidal rate of 40% or more and less than 70%)
[2]
  herbicidal effect, M: velvetleaf: 3 (Herbicidal rate of 40% or more and less than 70%)
[3]
  herbicidal effect, H: barnyard grass: 3 (Herbicidal rate of 40% or more and less than 70%)
[4]; [22]
  M: velvetleaf, herbicidal effect grade: 5 (Herbicidal rate of 90% or more (almost completely withered))
[5]
  herbicidal effect, G: green foxtail: 0 (Herbicidal rate of 5% or less (almost no effect))
[6]; [22]
  O: lambsquarters, herbicidal effect grade: 3 (Herbicidal rate of 40% or more and less than 70%)
[7]; [23]
  herbicidal effect on H: barnyard grass: 3 (Herbicidal rate of 40% or more and less than 70%)
[8]
  herbicidal effect, N: redroot pigweed: 4 (Herbicidal rate of 70% or more and less than 90%)
[9]; [22]
  N: redroot pigweed, herbicidal effect grade: 5 (Herbicidal rate of 90% or more (almost completely withered))
[10]
  herbicidal effect, F: southern crabgrass: 2 (Herbicidal rate of 20% or more and less than 40%)
[11]; [23]
  herbicidal effect on E: rice flat sedge: 0 (Herbicidal rate of 5% or less (almost no effect))
[12]; [22]
  G: green foxtail, herbicidal effect grade: 3 (Herbicidal rate of 40% or more and less than 70%)
[13]; [22]
  F: southern crabgrass, herbicidal effect grade: 4 (Herbicidal rate of 70% or more and less than 90%)
[14]
  herbicidal effect, O: lambsquarters: 3 (Herbicidal rate of 40% or more and less than 70%)
[15]; [23]
  herbicidal effect on D: Chinese sprangletop: 0 (Herbicidal rate of 5% or less (almost no effect))

## CCCC(=O)Oc1c(C)nn(C)c(=O)c1-c1c(-c2ccc(OC)c(OC)c2)sc2c(F)cccc12 [4-014]
[16]; 320 g/ha
  herbicidal effect on P: chickweed (evaluation grade 0-5): 5 (Herbicidal rate of 90% or more (almost completely withered))
[1]; [24]
  herbicidal effect on H: barnyard grass (evaluation grade 0-5): 2 (Herbicidal rate of 20% or more and less than 40%)
[17]; 320 g/ha
  herbicidal effect on I: wild oat (evaluation grade 0-5): 0 (Herbicidal rate of 5% or less (almost no effect))
[18]; 320 g/ha
  herbicidal effect on K: Italian ryegrass (evaluation grade 0-5): 1 (Herbicidal rate of 5% or more and less than 20%)
[19]; 320 g/ha
  herbicidal effect on L: windgrass (evaluation grade 0-5): 0 (Herbicidal rate of 5% or less (almost no effect))
[4]; [24]
  herbicidal effect on M: velvetleaf (evaluation grade 0-5): 3 (Herbicidal rate of 40% or more and less than 70%)
[6]; [24]
  herbicidal effect on O: lambsquarters (evaluation grade 0-5): 0 (Herbicidal rate of 5% or less (almost no effect))
[7]
  herbicidal effect on barnyard grass (H): 3 (Herbicidal rate of 40% or more and less than 70%)
[9]; [24]
  herbicidal effect on N: redroot pigweed (evaluation grade 0-5): 1 (Herbicidal rate of 5% or more and less than 20%)
[20]
  herbicidal effect on R: persian speedwell (evaluation grade 0-5): 3 (Herbicidal rate of 40% or more and less than 70%)
[11]
  herbicidal effect on rice flat sedge (E): 0 (Herbicidal rate of 5% or less (almost no effect))
[12]; [24]
  herbicidal effect on G: green foxtail (evaluation grade 0-5): 4 (Herbicidal rate of 70% or more and less than 90%)
[13]; [24]
  herbicidal effect on F: southern crabgrass (evaluation grade 0-5): 0 (Herbicidal rate of 5% or less (almost no effect))
[15]
  herbicidal effect on Chinese sprangletop (D): 0 (Herbicidal rate of 5% or less (almost no effect))

## Cc1nn(C)c(=O)c(-c2c(-c3cccc(C(F)(F)F)c3)sc3c(Cl)cccc23)c1O [4-072]
[16]; [23]
  Herbicidal effect by foliage application, P: chickweed: 5 (Herbicidal rate of 90% or more (almost completely withered))
[21]
  Herbicidal effect by foliage application, J: blackgrass: 0 (Herbicidal rate of 5% or less (almost no effect))
[1]; [25]
  Herbicidal effect by foliage application, H: barnyard grass: 1 (Herbicidal rate of 5% or more and less than 20%)
[17]; [23]
  Herbicidal effect by foliage application, I: wild oat: 0 (Herbicidal rate of 5% or less (almost no effect))
[18]; [23]
  Herbicidal effect by foliage application, K: Italian ryegrass: 1 (Herbicidal rate of 5% or more and less than 20%)
[19]; [23]
  Herbicidal effect by foliage application, L: windgrass: 0 (Herbicidal rate of 5% or less (almost no effect))
[4]; [25]
  Herbicidal effect by foliage application, M: velvetleaf: 3 (Herbicidal rate of 40% or more and less than 70%)
[6]; [25]
  Herbicidal effect by foliage application, O: lambsquarters: 2 (Herbicidal rate of 20% or more and less than 40%)
[7]
  herbicidal effect on barnyard grass (H): 3 (Herbicidal rate of 40% or more and less than 70%)
[9]; [25]
  Herbicidal effect by foliage application, N: redroot pigweed: 5 (Herbicidal rate of 90% or more (almost completely withered))
[11]
  herbicidal effect on rice flat sedge (E): 4 (Herbicidal rate of 70% or more and less than 90%)
[12]; [25]
  Herbicidal effect by foliage application, G: green foxtail: 3 (Herbicidal rate of 40% or more and less than 70%)
[13]; [25]
  Herbicidal effect by foliage application, F: southern crabgrass: 4 (Herbicidal rate of 70% or more and less than 90%)
[15]
  herbicidal effect on Chinese sprangletop (D): 3 (Herbicidal rate of 40% or more and less than 70%)
